Assay results from patent US20060079550A1, “Amino acid derivatives useful for the treatment of alzheimer's disease” (priority 2001, published 2006).

Target: aspartyl proteases, in particular, beta-secretase
Test: Ki of the compounds listed in Tables 1 and 2 (no method described)
Type: biochemical
Details: Table 1, compounds of formula Ia, W is -(CH2)n-

Ki | Structure (SMILES)
23800 nM | Nc1ccc(S(=O)(=O)NCCC[C@H](NC(=O)OCC2c3ccccc3-c3ccccc32)C(=O)O)cc1 [Compound No. 69, Nδ-(4-aminobenzenesulfonyl)-Nα-(9-fluorenylmethoxycarbonyl)-L-ornithine]
> 12500 nM | O=C(NCCCC[C@H](NS(=O)(=O)c1ccccc1[N+](=O)[O-])C(=O)O)OCC1c2ccccc2-c2ccccc21 [Compound No. 70, Nα-(2-nitrobenzenesulfonyl)-Nε-(9-fluorenylmethoxycarbonyl)-L-lysine]
44800 nM | O=C(NCCCC[C@H](NC(=O)OCC1c2ccccc2-c2ccccc21)C(=O)O)OCC1c2ccccc2-c2ccccc21 [Compound No. 71, Nα,Nε-di-(9-fluorenylmethoxycarbonyl)-L-lysine]
1300 nM | O=C(NCCC[C@H](NC(=O)OCC1c2ccccc2-c2ccccc21)C(=O)O)OCC1c2ccccc2-c2ccccc21 [Compound No. 73, NαNδ-di-(9-fluorenylmethoxycarbonyl)-L-ornithine]
> 1250 nM | Cc1ccc(S(=O)(=O)N(CC(C)C)[C@@H](CCCCNC(=O)OCc2ccccc2)C(=O)OCc2ccccc2)cc1 [Compound No. 75, Nα-isobutyl-Nα-(4-methylbenzenesulfonyl)-Nε-benzyloxycarbonyl-L-lysine Benzyl Ester]
> 1250 nM | CC(C)CN([C@@H](CCCCNC(=O)OCc1ccccc1)C(=O)OCc1ccccc1)S(=O)(=O)c1ccc([N+](=O)[O-])cc1 [Compound No. 78, Nα-isobutyl-Nα-(4-nitrobenzenesulfonyl)-Nε-benzyloxycarbonyl-L-lysine Benzyl Ester]
2320 nM | O=C(NCCCC[C@H](NS(=O)(=O)c1cccc2ccccc12)C(=O)O)OCC1c2ccccc2-c2ccccc21 [Compound No. 102, Nα-(1-naphthalenesulfonyl)-Nε-(9-fluorenylmethoxycarbonyl)-L-lysine]
3300 nM | O=C(NCCCC[C@H](NS(=O)(=O)c1ccc([N+](=O)[O-])cc1)C(=O)O)OCC1c2ccccc2-c2ccccc21 [Compound No. 103, Nα-(4-nitrobenzenesulfonyl)-Nε-(9-fluorenylmethoxycarbonyl)-L-lysine]
3160 nM | COc1ccc(S(=O)(=O)N[C@@H](CCCCNC(=O)OCC2c3ccccc3-c3ccccc32)C(=O)O)cc1 [Compound No. 104, Nα-(4-methoxylbenzenesulfonyl)-Nε-(9-fluorenylmethoxycarbonyl)-L-lysine]
16000 nM | Nc1ccccc1S(=O)(=O)N[C@@H](CCCCNC(=O)OCC1c2ccccc2-c2ccccc21)C(=O)O [Compound No. 105, Nα-(2-aminobenzenesulfonyl)-Nε-(9-fluorenylmethoxycarbonyl)-L-lysine]
4490 nM | Nc1ccc(S(=O)(=O)N[C@@H](CCCCNC(=O)OCC2c3ccccc3-c3ccccc32)C(=O)O)cc1 [Compound No. 106, Nα-(4-aminobenzenesulfonyl)-Nε-(9-fluorenylmethoxycarbonyl)-L-lysine]
3970 nM | O=C(NCCCC[C@H](NS(=O)(=O)c1ccccc1[N+](=O)[O-])C(=O)O)OCC1c2ccccc2-c2ccccc21 [Compound No. 107, Nα-(2-nitrobenzenesulfonyl)-Nε-(9-fluorenylmethoxycarbonyl)-L-lysine]
> 300 nM | COc1ccc(C=CC(=O)NCCCC[C@@H](C(=O)O)N(CC(C)C)S(=O)(=O)c2ccc([N+](=O)[O-])cc2)cc1 [Compound No. 113, Nα-isobutyl-Nα-(4-nitrobenzenesulfonyl)-Nε-(4-methoxycinnamoyl)-L-lysine]
> 300 nM | CC(C)CN([C@@H](CCCCNS(=O)(=O)Cc1ccccc1)C(=O)O)S(=O)(=O)c1ccc([N+](=O)[O-])cc1 [Compound No. 115, Nα-isobutyl-Nα-(4-nitrobenzenesulfonyl)-Nε-benzylsulfonyl-L-lysine]
6.2 nM | COc1cccc(CCC(=O)NCCCC[C@@H](C(=O)O)N(CC(C)C)S(=O)(=O)c2ccc(N)cc2)c1OC [Compound No. 119, Nα-isobutyl-Nα-(4-aminobenzenesulfonyl)-Nε-(2,3-dimethoxydihydrocinnamoyl)-L-lysine]
> 300 nM | CC(C)CN([C@@H](CCCCNC(=O)CCCc1ccccc1)C(=O)O)S(=O)(=O)c1ccc(N)cc1 [Compound No. 121, Nα-isobutyl-Nα-(4-aminobenzenesulfonyl)-Nε-(4-phenylbutanoyl)-L-lysine]
> 300 nM | CC(C)CN([C@@H](CCCCNC(=O)CCc1ccccc1N)C(=O)O)S(=O)(=O)c1ccc(N)cc1 [Compound No. 122, Nα-isobutyl-Nα-(4-aminobenzenesulfonyl)-Nε-(2-aminodihydrocinnamoyl)-L-lysine]
> 300 nM | COC(=O)[C@H](CCCCNC(=O)OCC1c2ccccc2-c2ccccc21)N(CC(C)C)S(=O)(=O)c1ccc(C)cc1 [Compound No. 123, Nα-isobutyl-Nα-(4-methylbenzenesulfonyl)-Nε-(9-fluorenylmethoxycarbonyl)-L-lysine Methyl Ester]
> 300 nM | Cc1ccc(S(=O)(=O)N(CC(C)C)[C@@H](CCCCNC(=O)CCc2ccc(O)cc2)C(=O)O)cc1 [Compound No. 126, Nα-isobutyl-Nα-(4-methylbenzenesulfonyl)-Nε-(4-hydroxydihydrocinnamoyl)-L-lysine]
10100 nM | Cc1ccc(S(=O)(=O)NCCC[C@H](NC(=O)OCC2c3ccccc3-c3ccccc32)C(=O)O)cc1 [Compound No. 149, Nδ-(4-methylbenzenesulfonyl)-Nα-(9-fluorenylmethoxycarbonyl)-L-ornithine]
10.2 nM | CC(C)CN([C@@H](CCCCNC(=O)CSc1ccccc1)C(=O)O)S(=O)(=O)c1ccc([N+](=O)[O-])cc1 [Compound No. 154, Nα-isobutyl-Nα-(4-Tnitrobenzenesulfonyl)-Nε-phenylthioacetyl-L-lysine]

Structure (SMILES) | Ki
O=C(NCCCC[C@H](NS(=O)(=O)c1ccc(Cl)cc1)C(=O)O)OCC1c2ccccc2-c2ccccc21 [Compound No. 72, Nα-(4-chlorobenzenesulfonyl)-Nε-(9-fluorenylmethoxycarbonyl)L-lysine] | 2380 nM
CC(C)CN([C@@H](CCCCNC(=O)CCc1ccccc1)C(=O)O)S(=O)(=O)c1ccc([N+](=O)[O-])cc1 [Compound No. 94, Nα-isobutyl-Nα-(4-nitrobenzenesulfonyl)-Nε-dihydrocinnamoyl-L-lysine] | 33.9 nM
CC(C)CN([C@@H](CCCCNC(=O)CCc1c[nH]c2ccccc12)C(=O)O)S(=O)(=O)c1ccc([N+](=O)[O-])cc1 [Compound No. 95, Nα-isobutyl-Nα-(4-nitrobenzenesulfonyl)-Nε-(3-indolepropionyl)-L-lysine] | 33.4 nM
CC(C)CN([C@@H](CCCCNC(=O)C1c2ccccc2Oc2ccccc21)C(=O)O)S(=O)(=O)c1ccc([N+](=O)[O-])cc1 [Compound No. 96, Nα-isobutyl-Nα-(4-nitrobenzenesulfonyl)-Nε-(9xanthenecarbonyl)-L-lysine] | 43.9 nM
CC(C)CN([C@@H](CCCCNC(=O)CCc1c[nH]c2ccccc12)C(=O)O)S(=O)(=O)c1ccc(N)cc1 [Compound No. 98, Nα-isobutyl-Nα-(4-aminobenzenesulfonyl)-Nε-(3-indolepropionyl)-L-lysine] | 10.1 nM
CC(C)CN([C@@H](CCCCNC(=O)C=Cc1cccc([N+](=O)[O-])c1)C(=O)O)S(=O)(=O)c1ccc([N+](=O)[O-])cc1 [Compound No. 108, Nα-isobutyl-Nα-(4-nitrobenzenesulfonyl)-Nε-(3-nitrocinnamoyl)-L-lysine] | > 300 nM
CC(C)CN(C(CCCCNC(=O)C=Cc1ccccc1[N+](=O)[O-])C(=O)O)S(=O)(=O)c1ccc([N+](=O)[O-])cc1 [Compound No. 109, Nα-isobutyl-Nα-(4-nitrobeiizenesulfonyl)-Nε-(2-nitrocinnamoyl)-L-lysine] | > 300 nM
CC(C)CN([C@@H](CCCCNC(=O)C=Cc1ccc([N+](=O)[O-])cc1)C(=O)O)S(=O)(=O)c1ccc([N+](=O)[O-])cc1 [Compound No. 111, Nα-isobutyl-Nα-(4-nitrobenzenesulfonyl)-Nε-(4-nitrocinnamoyl)-L-lysine] | 34.4 nM
CC(C)CN([C@@H](CCCCNC(=O)CCc1cccc(N)c1)C(=O)O)S(=O)(=O)c1ccc(N)cc1 [Compound No. 118, Nα-isobutyl-Nα-(4-aminobenzenesulfonyl)-Nε-(3-aminodihydrocinnamoyl)-L-lysine] | 20.5 nM
COc1ccc(CCC(=O)NCCCC[C@@H](C(=O)O)N(CC(C)C)S(=O)(=O)c2ccc(N)cc2)cc1 [Compound No. 120, Nα-isobutyl-Nα-(4-aminobenzenesulfonyl)-Nε-(4-methoxydihydrocinnamoyl)-L-lysine] | 12.4 nM
Cc1ccc(S(=O)(=O)N(CC(C)C)[C@@H](CO)CCCCNC(=O)OCC2c3ccccc3-c3ccccc32)cc1 [Compound No. 124, (2R)-N-isobutyl-N-(4-methylbenzenesulfonylamino)-6-(9-fluorenylmethoxycarboxylamino)-1-hexanol] | 208 nM
Cc1ccc(S(=O)(=O)N(CC(C)C)C(CCCCNC(=O)OCC2c3ccccc3-c3ccccc32)C(N)=O)cc1 [Compound No. 125, (2R,2S)-N-isobutyl-N-(4-methylbenzenesulfonylamino)-6-(9-fluorenylmethoxycarboxylamino)-1-hexanamide] | 107 nM
Cc1ccc(S(=O)(=O)N(CC(C)C)C(CCCCNC(=O)OCC2c3ccccc3-c3ccccc32)C(=O)NO)cc1 [Compound No. 141, (2R,2S)-N-isobutyl-N-(4-methylbenzenesulfonylamino)-6-(9-fluorenylmethoxycarboxylamino)-1-hydroxylhexamide] | 245 nM
CC(C)CN([C@@H](CCCCNC(=O)CCc1ccc2c(c1)OCO2)C(=O)O)S(=O)(=O)c1ccc(N)cc1 [Compound No. 155, Nα-isobutyl-Nα-(4-aminobenzenesulfonyl)-Nε-(3,4-methylenedioxydihydrocinnamoyl)-L-lysine] | 15.7 nM
COc1cccc(CCC(=O)NCCCC[C@@H](C(=O)O)N(CC(C)C)S(=O)(=O)c2ccc(N)cc2)c1 [Compound No. 156, Nα-isobutyl-Nα-(4-aminobenzenesulfonyl)-Nε-(3-methoxydihydrocinnamoyl)-L-lysine] | 16.7 nM
COc1ccccc1CCC(=O)NCCCC[C@@H](C(=O)O)N(CC(C)C)S(=O)(=O)c1ccc(N)cc1 [Compound No. 157, Nα-isobutyl-Nα-(4-aminobenzenesulfonyl)-Nε-(2-methoxydihydrocinnamoyl)-L-lysine] | 18.9 nM
